Measured values: paper PMC8152265, “Seconeolitsine, the Novel Inhibitor of DNA Topoisomerase I, Protects against Invasive Pneumococcal Disease Caused by Fluoroquinolone-Resistant Strains” (Antibiotics, 2021)
Converted amounts (≈) assume the structure as drawn. Where two headings read alike, the source gives them in different places.

What was measured:
S. pneumoniae Topo I = test system: S. pneumoniae Topo I; set-up: method as in PMID 21169356; details: cited from earlier work
Hydrosolubility = format: physicochemical; details: data not shown
[1] = test system: S. pneumoniae isolate CipR57; experiment: Mouse sepsis model, survival after infection with CipR57; format: in vivo, Streptococcus pneumoniae; details: for survival at 36 h post-infection / survival within the first 48 h post-infection: mice infected i.p. with CipR57; for survival within the first 48 h post-infection: any concentration investigated (12.5 to 50 mg/kg s.c. every 12 h)
Procedure: (§1) BALB/c female mice (8–12 weeks old) weighing 20 g were purchased from Harlan Laboratories (Barcelona, Spain). […] Different concentrations of antibiotic (10, 20, and 40 mg/kg for SCN; 12.5, 25, and 50 mg/kg for LVX) were administered two times a day over 48 h by the subcutaneous route. The doses, interval, and schedule chosen were based in previous studies investigating the protective activity of FQs against pneumococcal sepsis in mice. Seconeolitsine stock solution was dissolved in dimethyl sulfoxide (DMSO) and the doses tested for protection in animals were prepared in PBS containing 1% DMSO. Animals in the lethal control groups were infected with S. pneumoniae and received the antibiotic solvent (PBS−1% DMSO) instead of SCN or LVX. The toxicity control for each antibiotic (no infection group) only received SCN or LVX. Animal experiments were performed in groups of at least 5 mice and were repeated twice.

[2] = test system: S. pneumoniae isolate CipR5 (serotype 33F); experiment: MIC by broth microdilution, isolate CipR5; format: cell-based, Streptococcus pneumoniae; details: AGCH medium, 18–24 h
Procedure: (§2) Bacteria were grown in Todd-Hewitt broth supplemented with 0.5% yeast extract (Difco) to an optical density at 580 nm (OD580) of 0.4 to 0.5 corresponding to ca. 10^8 CFU/mL. Single-use aliquots were stored at −80 °C in 10% glycerol to use in mice infections as previously described. Antimicrobial susceptibility was tested by broth microdilution, according to the Clinical and Laboratory Standards Institute guidelines. S. pneumoniae R6 was included as a quality control. Powders of known potency of LVX and MXF were purchased from Sigma. SCN was synthesized as previously described. Briefly, for MIC determination, pneumococcal strains were grown in a casein hydrolysate-based medium with 0.3% sucrose as an energy source (AGCH medium). A 96-well plate was used including broth containing different concentrations of antibiotics. Plates were inoculated with a standardized suspension of the pneumococcal strains followed by incubation at 37 °C with 5% CO2 for 18–24 h. The minimal inhibitory concentrations (MICs) were determined by observing the lowest concentration of the agent that inhibited visible growth of the bacterium.

[3] = test system: S. pneumoniae isolate CipR45 (serotype 8); experiment: MIC by broth microdilution, isolate CipR45; format: cell-based, Streptococcus pneumoniae; details: isolate CipR45, serotype 8, low-level FQ-resistant, AGCH medium, 18–24 h
Procedure: as §2

[4] = test system: S. pneumoniae isolate CipR57 (serotype 8); experiment: MIC by broth microdilution, isolate CipR57; format: cell-based, Streptococcus pneumoniae; details: isolate CipR57, serotype 8, high-level FQ-resistant, AGCH medium, 18–24 h
Procedure: as §2

[5] = test system: S. pneumoniae isolate CipR57; experiment: Bacterial counts in blood of mice infected with CipR57; format: in vivo, Streptococcus pneumoniae; details: for effect on bacterial load in blood compared to the untreated group: 24 and 48 h post-infection, LVX 25 and 50 mg/kg, SCN different doses; for bacterial levels in blood at 24 h: 24 h post-infection; for bacteria in blood at 48 h: 48 h post-infection
Procedure: Bacteremic profiles (colony counts in blood) were determined from mice treated with SCN and LVX, at 24 h and 48 h post-infection, when the majority of mice were alive. To collect blood samples, volumes of 6 µl were obtained from the tail vein, as previously described, resuspended in PBS and plated onto blood agar plates at 37 °C in 5% CO2 for colony counts determination.

human cell = test system: human cell; set-up: method as in PMID 21169356; details: cited from earlier work
[6] = Toxicity control, non-infected mice; format: in vivo, BALB/c mice; details: 40 mg/kg, largest concentration used; 7 days of follow-up
Procedure: as §1

[7] = test system: S. pneumoniae isolate CipR15 (serotype 16F); experiment: MIC by broth microdilution, isolate CipR15; format: cell-based, Streptococcus pneumoniae; details: AGCH medium, 18–24 h
Procedure: as §2

[8] = test system: S. pneumoniae isolate CipR72 (serotype 15A); experiment: MIC by broth microdilution, isolate CipR72; format: cell-based, Streptococcus pneumoniae; details: AGCH medium, 18–24 h
Procedure: as §2

[9] = Serum pharmacokinetics in non-infected mice after single subcutaneous dose; format: in vivo, BALB/c mice
Procedure: Groups of two mice for each antibiotic and time-point were treated with a single subcutaneous dose of 40 mg/kg of SCN or 50 mg/kg of LVX. Blood samples were collected at 15 and 30 min and 1, 2, 4, 6, 8, 10, 12, 14, 18, and 24 h, centrifuged for 10 minutes at 2000 rpm, and the sera from the different mice were stored at −80 °C until drug assay determination.
Seconeolitsine concentrations were measured by high-pressure liquid chromatography analysis (HPLC). Chromatographic separation was performed using SunFire C18 column (150 × 4.6 mm; Waters Corporation, MA, USA) with trifluoroacetic acid and acetonitrile in the ratio 70:30 (vol./vol.) as the mobile phase. The solvent flow rate was 1.0 mL/min with a runtime of 20 minutes. The mobile phase was filtered through 0.45 µm prior to use. Standards ranging from 0−1.000 µg/mL were prepared in HPLC grade methanol. Sample dilutions, prepared in mouse serum, were injected into the column at a constant volume of 20 µl and were tested in duplicate. The detection wavelength was 270 by UV absorbance using a Waters UV–Visible 2489 module (Waters Corporation). The column was maintained at room temperature.
Plates containing a lawn of microorganism were incubated for 18–24 h at 37 °C. Standards and dilutions were prepared in mouse serum in a range from 0.03–8 µg/ mL.
Pharmacokinetic (PK) parameters measured included peak level (Cmax), time peak level (Tmax), area under the concentration time-curve from 0 to last (Clast) measured concentration (AUClast), and elimination half-life (t1/2). These parameters were estimated for both the total concentrations and the free fraction concentrations and were determined by using protein binding values, by a non-compartmental approach with the Phoenix WinNonlin program (version 6.2, Certara, NJ, USA). […] T>MIC for total and unbound concentrations (fT>MIC) were determined by a non-compartmental approach for PD data (Phoenix WinNonlin, model 220).

plasma proteins = experiment: Protein binding by ultrafiltration; format: in vitro ADME; details: murine plasma
Procedure: Binding to serum proteins was determined by the ultrafiltration method (36) using the Centrifree micropartition system (Amicon Bioseparations, Millipore, Tullagreen, Ireland) with concentrations in murine plasma of 1 and 50 μg/mL for SCN and 5 and 50 μg/mL for LVX. Pre-filtered samples and ultrafiltrates recovered were measured by HPLC or bioassay, as described above. Percentage of SCN or LVX bound to proteins in mouse serum was calculated using the expression: [antibiotic in pre−filtered samples] − [antibiotic in ultrafiltrated samples]/[antibiotic in pre-filtered samples] × 100 as previously described.

S. pneumoniae = test system: S. pneumoniae; set-up: method as in PMID 21169356; details: cited from earlier work
[10] = test system: S. pneumoniae isolate CipR45; experiment: Mouse sepsis model, survival after infection with CipR45; format: in vivo, Streptococcus pneumoniae; details: mice infected i.p. with CipR45
Procedure: as §1

[11] = mouse serum, single s.c. dose 40 mg/kg (seconeolitsine) or 50 mg/kg (levofloxacin)
[12] = Streptococcus pneumoniae, read-out: MIC
[13] = BALB/c, mouse, in vivo, sc, 50 mg/kg

CNCCc1cc2c(c3c1ccc1cc4c(cc13)OCO4)OCO2 [Seconeolitsine, seconeolitsine]
concentration inhibiting S. pneumoniae Topo I activity in vitro (S. pneumoniae Topo I): ~ 10 µM
hydrosolubility (Hydrosolubility): poor hydrosolubility
survival at 36 h post-infection ([1]; 20 mg/kg s.c. every 12 h over 48 h): 60%
survival at 36 h post-infection ([1]; 40 mg/kg s.c. every 12 h over 48 h): 70%
protection at 48 h ([1]; mice infected with a serotype 8-resistant strain, 40 mg/kg every 12 h during two days (abstract)): 70%
MIC [2]: 5.2 µg/mL (≈ 16.1 µM)
MIC [3]: 5.2 µg/mL (≈ 16.1 µM)
MIC [4]: 2.6 µg/mL (≈ 8.04 µM)
effect on bacterial load in blood compared to the untreated group [5]: significantly reduced bacterial load
bacterial levels in blood at 24 h [5]: 10^4−10^5 CFU/mL
bacteria in blood at 48 h [5]: a significant proportion of mice treated with SCN were free of bacteria
effect on human cell viability (human cell): without affecting human cell viability
harm to non-infected mice (survival, aspect, breathing, hair, eyes, appetite, movement, weight) [6]: not harmful
MIC [7]: 2.6 µg/mL (≈ 8.04 µM)
MIC [8]: 5.2 µg/mL (≈ 16.1 µM)
SCN-derived metabolites in murine plasma ([9]; by HPLC): not detected
AUC0-12h [9, 11]: 5000 ± 0 ng·h/mL
Cmax [9, 11]: 1600 ± 300 ng/mL
Cmin [9, 11]: 300 ± 40 ng/mL
Tlast [9, 11]: 9.0 ± 1.4 h
Tmax [9, 11]: 60 ± 0 min
t1/2 [9, 11]: 468 ± 144 min
AUC0-24h ([9]; mouse serum, single s.c. dose 40 mg/kg (seconeolitsine) or 50 mg/kg (levofloxacin), twice the AUC0-last): 10000 ± 100 ng·h/mL
binding to plasma proteins (plasma proteins; 1 µg/mL): 40%
binding to plasma proteins (plasma proteins; 50 µg/mL): 80%
concentration inhibiting cell growth (S. pneumoniae): ~ 10 µM

CN(C)CCc1cc2c(c3c1ccc1cc4c(cc13)OCO4)OCO2 [N-methyl-seconeolitsine]
concentration inhibiting S. pneumoniae Topo I activity in vitro (S. pneumoniae Topo I): ~ 10 µM
effect on human cell viability (human cell): without affecting human cell viability
concentration inhibiting cell growth (S. pneumoniae): ~ 10 µM

O=C(O)c1cn(C2CC2)c2cc(N3CCNCC3)c(F)cc2c1=O [CIP, ciprofloxacin]
MIC [2, 12]: 16 µg/mL (≈ 48.3 µM)
MIC [3, 12]: 4 µg/mL (≈ 12.1 µM)
MIC [4, 12]: 64 µg/mL (≈ 193 µM)
MIC [7, 12]: 32 µg/mL (≈ 96.6 µM)
MIC [8, 12]: 64 µg/mL (≈ 193 µM)

COc1c(N2C[C@@H]3CCCN[C@@H]3C2)c(F)cc2c(=O)c(C(=O)O)cn(C3CC3)c12 [MXF, moxifloxacin]
MIC [2, 12]: 2 µg/mL (≈ 4.98 µM)
MIC [3, 12]: 0.25 µg/mL (≈ 0.623 µM)
MIC [4, 12]: 4 µg/mL (≈ 9.96 µM)
MIC [7, 12]: 4 µg/mL (≈ 9.96 µM)
MIC [8, 12]: 4 µg/mL (≈ 9.96 µM)

C[C@H]1COc2c(N3CCN(C)CC3)c(F)cc3c(=O)c(C(=O)O)cn1c23 [Levofloxacin, levofloxacin]
survival within the first 48 h post-infection [1]: all died within the first 48 h
survival within the first 48 h post-infection ([1]; listed as LVX): all the animals died within the first 48 h post-infection
MIC [2, 12]: 8 µg/mL (≈ 22.1 µM)
MIC [3, 12]: 2 µg/mL (≈ 5.53 µM)
MIC [4, 12]: 16 µg/mL (≈ 44.3 µM)
effect on bacterial load in blood compared to the untreated group [5]: did not reduce bacterial levels in blood
bacterial levels in blood at 24 h [5]: around 10^8 CFU/mL
bacteria in blood at 48 h [5]: High levels of bacterial counts
MIC [7, 12]: 16 µg/mL (≈ 44.3 µM)
MIC [8, 12]: 32 µg/mL (≈ 88.6 µM)
Cmax [9, 13]: 14700 ± 700 ng/mL
Tmax [9, 13]: 15 min
half-life [9, 13]: 42 min
AUC(0-t) ([9]; BALB/c, mouse, in vivo, sc, 50 mg/kg, AUC0-12h): 17300 ± 1500 ng·h/mL
AUC(0-t) ([9]; BALB/c, mouse, in vivo, sc, 50 mg/kg, AUC0-24h): 34600 ± 2900 ng·h/mL
binding to plasma proteins (plasma proteins; 5 µg/mL): 12%
binding to plasma proteins (plasma proteins; 50 µg/mL): 33%
survival at 36 h post-infection ([10]; 12.5 mg/kg s.c. every 12 h over 48 h): 40%
survival at 36 h post-infection ([10]; 25 mg/kg s.c. every 12 h over 48 h): 80%
survival at 36 h post-infection ([10]; 50 mg/kg s.c. every 12 h over 48 h): 100%
survival at 78 h post-treatment ([10]; 12.5 to 50 mg/kg s.c. every 12 h over 48 h): all mice succumbed to the infection
